Reference: publication PMC8248439, “Activation, Structure, Biosynthesis and Bioactivity of Glidobactin‐like Proteasome Inhibitors from Photorhabdus laumondii” (Chembiochem, 2021)
Like-named read-outs stand apart in the source and are kept apart here.

How the values were obtained:
Format in all cases: biochemical
[1] = molecular target: T1, yeast 20S proteasome (yCP) β2 subunit (TL) (Saccharomyces cerevisiae, UniProt P25043); assay: X-ray crystal structure ([…] Å), mM soaking; weaker TL inhibition
T1 construct: gene PUP1; yeast 20S proteasome core particle
T1 sequence (P25043 30-261): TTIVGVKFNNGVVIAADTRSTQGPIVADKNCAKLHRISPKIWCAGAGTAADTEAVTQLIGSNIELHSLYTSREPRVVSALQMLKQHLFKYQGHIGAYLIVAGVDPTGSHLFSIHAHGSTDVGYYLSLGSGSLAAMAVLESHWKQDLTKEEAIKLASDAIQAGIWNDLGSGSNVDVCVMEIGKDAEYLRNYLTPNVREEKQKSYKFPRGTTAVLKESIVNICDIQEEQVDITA

[2] = molecular target: T2, yeast 20S proteasome (yCP) β5 subunit (ChTL) (Saccharomyces cerevisiae, UniProt P23724+P30656); assay: X-ray crystal structure ([…] Å) and ChTL activity inhibition assay of yCP
T2 construct: gene PRE2; yeast 20S proteasome core particle; with β6 subunit of yCP
T2 sequence (P30656 76-287): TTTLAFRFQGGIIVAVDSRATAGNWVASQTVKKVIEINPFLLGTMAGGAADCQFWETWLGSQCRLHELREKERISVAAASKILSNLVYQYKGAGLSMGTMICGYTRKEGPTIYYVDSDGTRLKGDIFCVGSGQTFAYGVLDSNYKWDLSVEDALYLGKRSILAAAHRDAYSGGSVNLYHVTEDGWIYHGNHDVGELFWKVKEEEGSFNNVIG
T2 sequence (P23724 20-241): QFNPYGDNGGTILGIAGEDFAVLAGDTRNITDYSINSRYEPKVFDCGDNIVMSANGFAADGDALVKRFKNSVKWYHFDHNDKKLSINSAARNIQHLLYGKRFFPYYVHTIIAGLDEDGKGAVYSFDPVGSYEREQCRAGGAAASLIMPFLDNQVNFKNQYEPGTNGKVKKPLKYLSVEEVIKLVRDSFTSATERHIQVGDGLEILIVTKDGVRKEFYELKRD

[3] = molecular target: T1, yeast 20S proteasome (yCP) β2 subunit (TL); assay: X-ray crystal structure ([…] Å), mM soaking; weaker TL inhibition; remark: listed apart in the source
[4] = molecular target: T2, yeast 20S proteasome (yCP) β5 subunit (ChTL); assay: X-ray crystal structure ([…] Å) and ChTL activity inhibition assay of yCP; remark: listed apart in the source

CC1C=CC(=O)NCCC(O)CC(NC(=O)C(NC(=O)C=Cc2ccccc2)C(C)O)C(=O)N1 (stereo not shown) [compound 5]
IC50 [1]: > 200 nM | IC50 [2]: 107 nM

CC1C=CC(=O)NCCC(O)CC(NC(=O)C(NC(=O)C=CC=Cc2ccccc2)C(C)O)C(=O)N1 (stereo not shown) [compound 4]
IC50 [3]: > 200 nM | IC50 [4]: 73 nM
